Measured values: patent publication US20180168160A1, “MICROBICIDAL COMPOSITION” (Rohm and Haas Company, priority 2015, published 2018)
Read-outs that look alike come from different tables or passages of the source.

Tests used:
[1] = Synergy test, high resolution MIC microtiter plate assay against a bacterial consortium; type: cell-based; conditions: M9GY medium, 35° C., 24 hrs, visual turbidity, active ingredient basis
Text: (§1) One measure of synergism is the industrially accepted method described by Kull, F. C.; Eisman, P. C.; Sylwestrowicz, H. D. and Mayer, R. L., in Applied Microbiology 9:538-541 (1961), using the ratio determined by the formula: Qa/QA+Qb/QB=Synergy Index (“SI”) wherein: QA=concentration of compound A (first component) in ppm, acting alone, which produced an end point (MIC of Compound A). QA=concentration of compound A in ppm, in the mixture, which produced an end point. QB=concentration of compound B (second component) in ppm, acting alone, which produced an end point (MIC of Compound B). Qb=concentration of compound B in ppm, in the mixture, which produced an end point.
(§2) When the sum of Qa/QA and Qb/QB is greater than one, antagonism is indicated. […] The lower the SI, the greater the synergy shown by that particular mixture. The minimum inhibitory concentration (MIC) of a microbicide is the lowest concentration tested under a specific set of conditions that prevents the growth of added microorganisms.
(§3) Synergy tests were conducted using standard microtiter plate assays with media designed for optimal growth of the test microorganism. Minimal salt medium supplemented with 0.2% glucose and 0.1% yeast extract (M9GY medium) was used for testing bacteria. In this method, a wide range of combinations of microbicides was tested by conducting high resolution MIC assays in the presence of various concentrations of DMDMH and Dazomet or THNM and Dazomet. High resolution MICs were determined by adding varying amounts of microbicide to one column of a microtiter plate and doing subsequent […] dilutions using an automated liquid handling system to obtain a series of endpoints ranging from 2 ppm to 1,000 ppm active ingredient.
(§4) The synergy of the combinations of the present invention was determined against a consortium of selected bacterial species, Escherichia coli (ATCC #25922), Pseudomonas aeruginosa (ATCC #9027, Staphylococcus aureus (ATCC #6538) and Klebsiella pneumoniae (ATCC #13883). The consortium was prepared using approximately 1×10^6 CFU per mL of each species. These microorganisms are representative of natural contaminants in many industrial applications. The plates were visually evaluated for microbial growth (turbidity) to determine the MIC after selected incubation times at 35° C. after 24 hrs.
(§5) In each test, Second Component (B) was Dazomet and the First Component (A) was DMDMH.

[2] = test system: consortium of selected bacterial species, Escherichia coli (ATCC #25922), Pseudomonas aeruginosa (ATCC #9027, Staphylococcus aureus (ATCC #6538) and Klebsiella …); test: as above; type: cell-based; conditions: M9GY medium, 35° C., 24 hrs, visual turbidity, active ingredient basis
Text: as §1, §2, §3, §4, §5

CN1CSC(=S)N(C)C1 [Dazomet, 3,5-dimethyl-1,3,5-thiadiazinane-2-thione]
MIC ([1]; Table 1, read-out: MIC of Dazomet alone (QB)): 100 µg/mL | MIC of Dazomet alone (QB) ([2]; Table 2): 100 µg/mL

O=[N+]([O-])C(CO)(CO)CO [THNM, tris(hydroxymethyl)nitromethane]
MIC ([1]; Table 2, read-out: MIC of THNM alone (QA)): 400 µg/mL

CC1(C)C(=O)N(CO)C(=O)N1CO [DMDMH, dimethylol-dimethylhydantoin]
MIC of DMDMH alone (QA) ([2]; Table 1): 200 µg/mL
